Test results published in PMC10294832, “Investigation of Naphthyl–Polyamine Conjugates as Antimicrobials and Antibiotic Enhancers” (Antibiotics, 2023).
In brackets after ≈: the same amount, converted by molar mass.

How the values were obtained:
[1] = tested on: S. aureus (ATCC 25,923 or ATCC 29213); parameters: method as in PMID 36982955; details: earlier work; cited from earlier work
E. coli (ATCC 25922) [2] = tested on: E. coli (ATCC 25922); parameters: method as in PMID 36982955; details: earlier work; cited from earlier work
MRSA (ATCC 43300) [3] = tested on: MRSA (ATCC 43300); parameters: method as in PMID 36982955; details: earlier work; cited from earlier work
E. coli = tested on: E. coli; parameters: method as in PMID 15225864; details: novobiocin and erythromycin; weak effect; cited from earlier work
[4] = tested on: K. pneumoniae (ATCC 700603); experiment: Antimicrobial MIC, K. pneumoniae; format: cell-based; details: Klebsiella pneumoniae, ATCC700603, mean (n = 2)
Cytotoxicity assay = format: cell-based, human; details: human, HEK293 human embryonic kidney cells, concentration at 50% cytotoxicity on HEK293 cells; mean (n = 2)
Procedure: (§1) Cytotoxicity assays were conducted using the protocols previously reported.

[5] = tested on: HEK293 human embryonic kidney cells; experiment: Cytotoxicity assay; format: cell-based; details: concentration at 50% cytotoxicity on HEK293 cells; mean (n = 2)
Procedure: as §1

C. albicans (ATCC 90028) = experiment: Antifungal MIC, C. albicans; format: cell-based; details: Candida albicans, ATCC90028, mean (n = 2)
Summary of the method: (§2)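 In-house testing to a published method gave the antibacterial MICs, with antibiotics included for comparison; the Candida and Cryptococcus MICs were obtained through CO-ADD's standard screen.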

[6] = tested on: P. aeruginosa (PAO1 or ATCC 27853); experiment: Antimicrobial MIC, P. aeruginosa; format: cell-based; details: Pseudomonas aeruginosa; P. aeruginosa (PAO1 or ATCC 27853); mean (n = 3); read-out: MIC P. a
Summary of the method: as §2

human red blood cells = experiment: Hemolytic assay; format: cell-based; details: concentration at 10% hemolytic activity on human red blood cells; mean (n = 2)
Procedure: Hemolysis assays were conducted using the protocols previously reported.

[7] = tested on: P. aeruginosa (ATCC 27853); experiment: Enhancement of doxycycline activity; format: cell-based, Pseudomonas aeruginosa; details: for Concentration of test compound required to restore doxycycline activity / Dox/P.a: concentration required to restore doxycycline activity (combination MIC): P. aeruginosa (ATCC 27853); for Dox/P.a: concentration required to restore doxycycline activity (combination MIC): doxycycline fixed at 4.5 µM (2 µg/mL)
E. coli (ATCC 25922) [8] = experiment: Enhancement of erythromycin activity; format: cell-based, Escherichia coli; details: for Eryth/E.c: concentration required to restore erythromycin activity (combination MIC): erythromycin fixed at 10.9 µM (8 µg/mL), E. coli (ATCC 25922); for Eryth/E.c fold change: ratio between intrinsic MIC of test compound and combination MIC, erythromycin 10.9 µM, E. coli
Procedure: Restoring enhancer concentrations were determined using previously reported protocols.

[9] = tested on: A. baumannii (ATCC 19606); experiment: Antimicrobial MIC, A. baumannii; format: cell-based, Acinetobacter baumannii; details: Acinetobacter baumannii, ATCC19606, A. baumannii (ATCC 19606); mean (n = 2)
[10] = tested on: S. aureus (ATCC 25,923 or ATCC 29213); experiment: Antimicrobial MIC, S. aureus; format: cell-based, Staphylococcus aureus; details: Staphylococcus aureus, mean (n = 3)
Summary of the method: as §2

[11] = tested on: C. neoformans (ATCC 208821); experiment: Antifungal MIC, C. neoformans; format: cell-based, Cryptococcus neoformans; details: Cryptococcus neoformans, ATCC208821, C. neoformans (ATCC 208821); mean (n = 2)
Summary of the method: as §2

E. coli (ATCC 25922) [12] = experiment: Antimicrobial MIC, E. coli; format: cell-based, Escherichia coli; details: Escherichia coli, ATCC25922, E. coli (ATCC 25922); mean (n = 2)
Summary of the method: as §2

MRSA (ATCC 43300) [13] = experiment: Antimicrobial MIC, MRSA; format: cell-based, methicillin-resistant Staphylococcus aureus; details: Staphylococcus aureus, MRSA (ATCC 43300); mean (n = 2); read-out: MIC MRSA

Compound | MIC [4] | IC50 (Cytotoxicity assay) | MIC (C. albicans (ATCC 90028)) | melting point | MIC [6] | Hemolysis HC10 (human red blood cells) | Dox/P.a: concentration required to restore doxycycline activity (combination MIC) [7] | Eryth/E.c: concentration required to restore erythromycin activity (combination MIC) (E. coli (ATCC 25922) [8]) | Eryth/E.c fold change (E. coli (ATCC 25922) [8]) | MIC [9] | MIC [10] | MIC [11] | MIC (E. coli (ATCC 25922) [12]) | MIC (MRSA (ATCC 43300) [13]) | further results
O=C(CC(c1ccccc1)(c1ccccc1)c1ccccc1)NCCCNCCCCCCCCNCCCNC(=O)CC(c1ccccc1)(c1ccccc1)c1ccccc1 [Compound 7] | – | – | – | – | – | – | – | – | – | – | – | – | – | – | MIC Staphylococcus aureus [1]: 3.13 µM (≈ 2.59 µg/mL); MIC Escherichia coli (E. coli (ATCC 25922) [2]): 7.6 µM (≈ 6.29 µg/mL); MIC MRSA (MRSA (ATCC 43300) [3]): ≤ 0.24 µM
NCCCNCCCCNCCCNC(=O)Cc1cccc2ccccc12 [Compound 22, naphthylacetylspermine] | – | – | – | – | – | – | – | – | – | – | – | – | – | – | doses rendering E. coli sensitive to hydrophobic antibiotics (E. coli): 64 to 128 µg/mL
O=C(NCCCNCCCCNCCCNC(=O)c1ccc2ccccc2c1)c1ccc2ccccc2c1.O=C(O)C(F)(F)F.O=C(O)C(F)(F)F [Compound 19a, N^1,N^4-Bis(3-(2-naphthamido)propyl)butane-1,4-diaminium 2,2,2-trifluoroacetate] | > 43.3 µM | 26 µM | > 43.3 µM | 132 to 135 °C | 677 µM | >43.3 µM | 16.9 µM | 4.2 µM | 64 fold | > 43.3 µM | 34 µM | 21.7 µM | 271 µM | 43.3 µM | IC50 [5]: 26.4 µM; Concentration of test compound required to restore doxycycline activity ([7]; doxycycline concentration 2 µg/mL): 16.9 µM; Concentration of test compound required to restore doxycycline activity ([7]; doxycycline concentration 4 µg/mL): 8.5 µM; Concentration of test compound required to restore doxycycline activity ([7]; doxycycline concentration 6 µg/mL): 8.5 µM; Concentration of test compound required to restore doxycycline activity ([7]; doxycycline concentration 8 µg/mL): 4.2 µM
O=C(CCC(=O)Nc1ccc(-c2ccccc2)cc1)NCCCNCCCCNCCCNC(=O)CCC(=O)Nc1ccc(-c2ccccc2)cc1.O=C(O)C(F)(F)F.O=C(O)C(F)(F)F [Compound 21a, N^1,N^4-Bis(3-(4-([1,1’-biphenyl]-4-ylamino)-4-oxobutanamido)propyl)butane-1,4-diaminium 2,2,2-trifluoroacetate] | > 34.3 µM | > 34.3 µM | > 34.3 µM | 203 to 205 °C | 300 µM | 31.4 µM | 300 µM | 300 µM | 1 fold | > 34.3 µM | 300 µM | > 34.3 µM | 300 µM | 0.268 µM | Dox/P.a fold change ([7]; ratio between intrinsic MIC of test compound and combination MIC, doxycycline 4.5 µM, P. aeruginosa): 1 fold
